Source: PubChem BioAssay (NCI)
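Briefly, cells in 96-well plates were exposed to five compound concentrations for 48 h, and endpoints were estimated by linear interpolation. GI50 is the concentration that inhibits growth by half. At the TGI there is no net growth.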

Assays:
Assay in all cases: NCI anticancer screen, dose series, 48 h
EKVX NSCLC = test system: EKVX NSCLC
HCT-15 colon = test system: HCT-15 colon
HT29 colon = test system: HT29 colon
OVCAR-3 ovarian = test system: OVCAR-3 ovarian
SF-295 CNS = test system: SF-295 CNS
SF-539 CNS = test system: SF-539 CNS
SK-OV-3 ovarian = test system: SK-OV-3 ovarian
UACC-257 melanoma = test system: UACC-257 melanoma
UO-31 renal = test system: UO-31 renal
HOP-62 NSCLC = test system: HOP-62 NSCLC

SMILES | TGI (EKVX NSCLC) | TGI (HCT-15 colon) | TGI (HT29 colon) | TGI (OVCAR-3 ovarian) | TGI (SF-295 CNS) | TGI (SF-539 CNS) | TGI (SK-OV-3 ovarian) | TGI (UACC-257 melanoma) | TGI (UO-31 renal) | GI50 (HCT-15 colon) | GI50 (HT29 colon) | GI50 (SF-295 CNS) | GI50 (UO-31 renal) | GI50 (HOP-62 NSCLC) | TGI (HOP-62 NSCLC) | GI50 (OVCAR-3 ovarian) | GI50 (SK-OV-3 ovarian) | GI50 (EKVX NSCLC) | GI50 (SF-539 CNS) | GI50 (UACC-257 melanoma)
NC(CCCC(N)P(=O)(O)O)P(=O)(O)O (stereo unspecified) | > 100 µM | > 100 µM | > 100 µM | > 100 µM | > 100 µM | > 100 µM | > 100 µM | > 100 µM | > 100 µM | – | – | – | – | – | – | – | – | – | – | –
COc1ccc2c(c1)C(=O)CCc1cc(OC)c(OC)c(OC)c1-2 | – | > 100 µM | – | – | > 100 µM | 87.1 µM | > 100 µM | > 100 µM | > 100 µM | < 0.01 µM | < 0.01 µM | < 0.01 µM | < 0.01 µM | – | – | – | – | – | – | –
CC(C)CNc1nc(-c2ccccc2Cl)nc2ccccc12 | – | 32.1 µM | – | 31.2 µM | 28.4 µM | – | 50.1 µM | – | 49.2 µM | 17.1 µM | – | 14.9 µM | 17.1 µM | 15.8 µM | 29.2 µM | 17 µM | 21.3 µM | – | – | –
CCC[CH2][Sn]([CH2]CCC)([O]C(=O)CN)[O]C(=O)CN | 51.2 µM | 63.6 µM | > 100 µM | > 100 µM | > 100 µM | > 100 µM | > 100 µM | > 100 µM | > 100 µM | 26.9 µM | > 100 µM | 34.5 µM | > 100 µM | 7.25 µM | > 100 µM | 27.8 µM | > 100 µM | 16 µM | 57 µM | 50.4 µM
O=C(Oc1ccc[nH]c1=O)c1cc([N+](=O)[O-])cc([N+](=O)[O-])c1 | > 100 µM | > 100 µM | > 100 µM | > 100 µM | > 100 µM | > 100 µM | > 100 µM | > 100 µM | > 100 µM | 81 µM | > 100 µM | 26.6 µM | 23.6 µM | > 100 µM | > 100 µM | > 100 µM | > 100 µM | > 100 µM | > 100 µM | > 100 µM
CCCCCCCCCCCCCP(=O)(O)O | > 100 µM | > 100 µM | > 100 µM | > 100 µM | > 100 µM | > 100 µM | > 100 µM | > 100 µM | > 100 µM | – | – | – | – | – | > 100 µM | – | – | – | – | –
O=C(O)c1ccc(CN2CCC(CN[C@@H]3C[C@H]3c3ccccc3)CC2)cc1 | > 100 µM | > 100 µM | > 100 µM | > 100 µM | > 100 µM | > 100 µM | > 100 µM | > 100 µM | > 100 µM | > 100 µM | > 100 µM | > 100 µM | > 100 µM | > 100 µM | > 100 µM | > 100 µM | > 100 µM | > 100 µM | > 100 µM | > 100 µM
